Measured values from patent US20260200897A1, “4-((5-(3-(4-(PYRIDIN-2-YL)CYCLOPENTYL)-1H-PYRAZOL-3-YL)AMINO)-BENZENESULFONAMIDE DERIVATIVES AND SIMILAR COMPOUNDS AS CDK INHIBITORS FOR THE TREATMENT OF CANCER” (BeOne Medicines I GmbH, priority 2023, published 2026).

Key:
CDK2/Cyclin E1 = CDK2/Cyclin E1 (Homo sapiens, UniProt P24941); experiment: CDK2/Cyclin E1 TR-FRET biochemical assay, 1 mM ATP; settings: 0.15 μM Rb (Ser780)-biotin substrate, 90 min reaction, Table 2
Description: (§1) Compounds disclosed herein were tested for inhibition of CDK2/Cyclin E1 or CDK1/Cyclin B kinase in an assay based on the time-resolved fluorescence-resonance energy transfer (TR-FRET) methodology. The assay was carried out in 384-well low volume black plates in a reaction mixture containing CDK2/Cyclin E1 or CDK1/Cyclin B1, 1 mM ATP for CDK2/Cyclin E1 and CDK1/Cyclin B1, 0.15 μM Rb (Ser780)-biotin substrate and 0-10 μM compound in buffer containing 50 mM HEPES pH7.0, 0.02% NaN3, 0.01% BSA, 0.1 mM Orthovanadate, 50 mM MgCl2, 1 mM DTT and 0.005% Tween-20. The kinase was incubated with compound for 60 minutes at room temperature and the reaction was initiated by the addition of ATP and Rb (Ser780)-biotin substrate. After reaction at room temperature for 90 minutes, an equal volume of stop/detection solution was added according to the manufacture's instruction (Cisbio Bioassays). The stop/detection solution contained Streptavidin-XL665 and Anti-pRb (Ser780) mAb-Eu Cryptate in Detection buffer (Cisbio Bioassays). Plates were incubated at room temperature for 60 minutes, and the TR-FRET signals (ex337 nm, em665 nm/620 nm) were recorded on a PHERAstar FSX plate reader (BMG Labtech). The inhibition percentage of CDK2/Cyclin E1 or CDK1/Cyclin B1 kinase activity in presence of increasing concentrations of compounds was calculated based on the ratio of fluorescence at 665 nm to that at 620 nm. The IC50 for each compound was derived from fitting the data to the four-parameter logistic equation by Dotmatics.

CDK1/Cyclin B1 = CDK1/Cyclin B1 (Homo sapiens, UniProt P06493); experiment: CDK1/Cyclin B1 TR-FRET biochemical assay, 1 mM ATP; settings: 0.15 μM Rb (Ser780)-biotin substrate, 90 min reaction, Table 2
Chain of CDK1/Cyclin B1 (P06493 whole entry): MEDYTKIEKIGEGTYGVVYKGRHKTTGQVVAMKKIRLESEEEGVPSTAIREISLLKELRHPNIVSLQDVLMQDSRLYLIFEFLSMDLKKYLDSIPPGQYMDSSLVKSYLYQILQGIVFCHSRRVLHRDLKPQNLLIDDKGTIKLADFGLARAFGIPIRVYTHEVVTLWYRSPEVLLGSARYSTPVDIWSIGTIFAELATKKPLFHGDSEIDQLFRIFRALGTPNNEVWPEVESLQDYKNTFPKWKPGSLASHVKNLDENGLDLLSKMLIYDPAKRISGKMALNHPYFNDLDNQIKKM
Chain of CDK1/Cyclin B1 (P14635 whole entry partner): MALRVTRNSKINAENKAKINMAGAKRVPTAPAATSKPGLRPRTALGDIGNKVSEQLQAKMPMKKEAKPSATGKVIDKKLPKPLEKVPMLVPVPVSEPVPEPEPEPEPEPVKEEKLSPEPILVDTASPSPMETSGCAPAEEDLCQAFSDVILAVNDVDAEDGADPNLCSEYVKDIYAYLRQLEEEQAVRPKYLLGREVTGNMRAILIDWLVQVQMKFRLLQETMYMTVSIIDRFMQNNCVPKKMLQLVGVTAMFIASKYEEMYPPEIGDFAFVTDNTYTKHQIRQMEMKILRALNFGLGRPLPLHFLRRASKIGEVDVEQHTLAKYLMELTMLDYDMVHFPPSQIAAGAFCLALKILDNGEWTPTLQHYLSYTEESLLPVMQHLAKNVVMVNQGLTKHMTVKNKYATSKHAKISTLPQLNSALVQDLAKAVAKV
Description: as §1

Compound	IC50 (CDK2/Cyclin E1) [µM]	IC50 (CDK1/Cyclin B1) [µM]
CC(C)(C)c1ccc([C@@H]2CC[C@H](c3cc(Nc4ccc5c(c4F)CNS5(=O)=O)n[nH]3)C2)o1 (relative stereo) [Example 107, cis-5-((5-(3-(5-(tert-butyl)furan-2-yl)cyclopentyl)-1H-pyrazol-3-yl)amino)-4-fluoro-2,3-dihydrobenzo[d]isothiazole 1,1-dioxide]	2.44	> 10
CC(C)(C)c1cnc(C2CCC(c3cc(Nc4cc5c(cc4F)S(=O)(=O)NC5)n[nH]3)C2)o1 (single isomer, unassigned) [Example 17c, 5-((5-(3-(5-(tert-butyl)oxazol-2-yl)cyclopentyl)-1H-pyrazol-3-yl)amino)-6-fluoro-2,3-dihydrobenzo[d]isothiazole 1,1-dioxide]	0.102	> 10
CCOC(=O)c1nc(C2CCC(c3cc(Nc4ccc5c(c4F)CNS5(=O)=O)n[nH]3)C2)oc1C(C)C (stereo not shown) [Example 115, ethyl 2-(3-(3-((4-fluoro-1,1-dioxido-2,3-dihydrobenzo[d]isothiazol-5-yl)amino)-1H-pyrazol-5-yl)cyclopentyl)-5-isopropyloxazole-4-carboxylate]	0.264	> 10
CC(C)(C)c1cnc(C2CCC(c3cc(Nc4ccc5c(c4)CN=S5(C)=O)n[nH]3)C2)o1 (single isomer, unassigned) [Example 169d, 5-((5-(3-(5-(tert-butyl)oxazol-2-yl)cyclopentyl)-1H-pyrazol-3-yl)amino)-1-methyl-3H-1λ^4-benzo[d]isothiazole 1-oxide]	0.173	> 10
CC(C)(C)c1cncc(C2CCC(c3cc(Nc4ccc5c(c4F)CS(=O)(=O)N5)n[nH]3)C2)c1 (stereo not shown) [Example 162, 5-((5-(3-(5-(tert-butyl)pyridin-3-yl)cyclopentyl)-1H-pyrazol-3-yl)amino)-4-fluoro-1,3-dihydrobenzo[c]isothiazole 2,2-dioxide]	0.308	> 10
CC(C)(C)c1cccc(C2CCC(c3cc(Nc4ccc5c(c4F)CNS5(=O)=O)n[nH]3)C2)c1 (stereo not shown) [Example 132, 5-((5-(3-(3-(tert-butyl)phenyl)cyclopentyl)-1H-pyrazol-3-yl)amino)-4-fluoro-2,3-dihydrobenzo[d]isothiazole 1,1-dioxide]	> 10	> 10
CC1(c2cnc(C3CCC(c4cc(Nc5ccc6c(c5F)CNS6(=O)=O)n[nH]4)C3)o2)CC1 (stereo not shown) [Example 112, 4-fluoro-5-((5-(3-(5-(1-methylcyclopropyl)oxazol-2-yl)cyclopentyl)-1H-pyrazol-3-yl)amino)-2,3-dihydrobenzo[d]isothiazole 1,1-dioxide]	0.016	6.85
CC(C)(C)c1cnc([C@@H]2CC[C@H](c3cc(Nc4ccc5c(c4F)CS(=O)(=O)N5)n[nH]3)C2)s1 (relative stereo) [Example 149, cis-5-((5-(3-(5-(tert-butyl)thiazol-2-yl)cyclopentyl)-1H-pyrazol-3-yl)amino)-4-fluoro-1,3-dihydrobenzo[c]isothiazole 2,2-dioxide]	6.12	> 10

The next lines start with the values.

IC50 (CDK2/Cyclin E1) [µM]	IC50 (CDK1/Cyclin B1) [µM]	Compound
0.014	1.32	CC(C)c1cnc(C2CCC(c3cc(Nc4ccc5c(c4)CS(=O)(=O)N5C)n[nH]3)C2)o1 (stereo not shown) [Example 143, 5-((5-(3-(5-isopropyloxazol-2-yl)cyclopentyl)-1H-pyrazol-3-yl)amino)-1-methyl-1,3-dihydrobenzo[c]isothiazole 2,2-dioxide]
0.314	> 10	CC(C)(C)c1nnc([C@@H]2CC[C@H](c3cc(Nc4ccc5c(c4F)CNS5(=O)=O)n[nH]3)C2)o1 (relative stereo) [Example 96, cis-5-((5-(3-(5-(tert-butyl)-1,3,4-oxadiazol-2-yl)cyclopentyl)-1H-pyrazol-3-yl)amino)-4-fluoro-2,3-dihydrobenzo[d]isothiazole 1,1-dioxide]
0.868	> 10	COc1cccc(C2CCC(c3cc(Nc4ccc5c(c4F)CS(=O)(=O)N5)n[nH]3)C2)n1 (stereo not shown) [Example 160, 4-fluoro-5-((5-(3-(6-methoxypyridin-2-yl)cyclopentyl)-1H-pyrazol-3-yl)amino)-1,3-dihydrobenzo[c]isothiazole 2,2-dioxide]
1.81	> 10	CC(C)c1cnc(C2CCC(c3cc(Nc4ccc5c(c4F)CNS5(=O)=O)n[nH]3)C2)o1 (single isomer, unassigned) [Example 109c, 4-fluoro-5-((5-(3-(5-isopropyloxazol-2-yl)cyclopentyl)-1H-pyrazol-3-yl)amino)-2,3-dihydrobenzo[d]isothiazole 1,1-dioxide]
> 10	> 10	CC(C)(C)c1ccc(C2CCC(c3cc(Nc4cc5c(cc4F)S(=O)(=O)NC5)n[nH]3)C2)nc1 (stereo not shown) [Example 10, 5-((3-(3-(5-(tert-butyl)pyridin-2-yl)cyclopentyl)-1H-pyrazol-5-yl)amino)-6-fluoro-2,3-dihydrobenzo[d]isothiazole 1,1-dioxide]
0.462	> 10	CC(C)(C)c1ccnc(C2CCC(c3cc(Nc4cc5c(cc4F)S(=O)(=O)NC5)n[nH]3)C2)c1 (stereo not shown) [Example 13, 5-((5-(3-(4-(tert-butyl)pyridin-2-yl)cyclopentyl)-1H-pyrazol-3-yl)amino)-6-fluoro-2,3-dihydrobenzo[d]isothiazole 1,1-dioxide]
0.06	4.95	CC(C)(C)c1coc(C2CCC(c3cc(Nc4ccc5c(c4)CS(=O)(=O)N5)n[nH]3)C2)n1 (stereo not shown) [Example 136, 5-((5-(3-(4-(tert-butyl)oxazol-2-yl)cyclopentyl)-1H-pyrazol-3-yl)amino)-1,3-dihydrobenzo[c]isothiazole 2,2-dioxide]
1.79	> 10	CC(C)(C)C1CCC(C2CCC(c3cc(Nc4ccc5c(c4F)CNS5(=O)=O)n[nH]3)C2)O1 (stereo not shown) [Example 104, 5-((5-(3-(5-(tert-butyl)tetrahydrofuran-2-yl)cyclopentyl)-1H-pyrazol-3-yl)amino)-4-fluoro-2,3-dihydrobenzo[d]isothiazole 1,1-dioxide]
0.813	> 10	CC(C)(O)Cn1cc(C2CCC(c3cc(Nc4ccc5c(c4F)CNS5(=O)=O)n[nH]3)C2)cn1 (stereo not shown) [Example 102, 4-fluoro-5-((5-(3-(1-(2-hydroxy-2-methylpropyl)-1H-pyrazol-4-yl)cyclopentyl)-1H-pyrazol-3-yl)amino)-2,3-dihydrobenzo[d]isothiazole 1,1-dioxide]
0.438	> 10	CC(C)(C)c1ccc(C2CCC(c3cc(Nc4ccc5c(c4F)CS(=O)(=O)C5)n[nH]3)C2)o1 (stereo not shown) [Example 176, 5-((5-(3-(5-(tert-butyl)furan-2-yl)cyclopentyl)-1H-pyrazol-3-yl)amino)-4-fluoro-1,3-dihydrobenzo[c]thiophene 2,2-dioxide]
> 10	> 10	CC(C)(C)c1cnc(C2CCC(c3cc(Nc4ccc5c(c4F)CNS5(=O)=O)n[nH]3)C2)[nH]1 (stereo not shown) [Example 103, 5-((5-(3-(5-(tert-butyl)-1H-imidazol-2-yl)cyclopentyl)-1H-pyrazol-3-yl)amino)-4-fluoro-2,3-dihydrobenzo[d]isothiazole 1,1-dioxide]
2.03	> 10	CC(C)(C)c1cnc(C2CCC(c3cc(Nc4ccc5c(c4)CS(=O)(=O)N5)n[nH]3)C2)s1 (stereo not shown) [Example 137, 5-((5-(3-(5-(tert-butyl)thiazol-2-yl)cyclopentyl)-1H-pyrazol-3-yl)amino)-1,3-dihydrobenzo[c]isothiazole 2,2-dioxide]
